In patent publication US20230285516A1 (priority 2020, published 2023):

What was measured:
IL-23 = IL-23 gene expression in co-cultured tissues (RT-PCR); assay type: cell-based, human; details: co-cultures from patients with RA, vs control
Text: FIG. 7. Effect of type I polymerized collagen on the gene expression of pro- and anti-inflammatory cytokines and factors in the tissues of cartilage and synovial tissue co-cultures of patients with rheumatoid arthritis (RA). (A) Quantification of TNF-α, IL-6 and IL-10 gene expression and (B) Quantification of IL-23 and Foxp3 gene expression by RT-PCR in synovial membrane tissues and cartilage co-cultured for 7 days. The bars show the mean±SD of the transcript levels of the samples normalized through the expression of the housekeeping gene GADPH determined by 2ΔΔCt. The data represent the mean±SD of 9 cartilage and synovial co-cultures from RA patients. Each culture was performed in triplicate for each condition. Basal: tissue in basal conditions.

[1] = end of treatment and 7-day follow-up

collagen-polyvinylpyrrolidone [type I polymerized collagen]
transcription of IL-23 gene (IL-23): negatively regulated | fever, changes in heart rate and odynophagia (SARS-CoV2 (Covid-19); after 7 days): disappearance | patients in whom cough, myalgia, and loss of taste persisted (SARS-CoV2 (Covid-19); after 7 days): 40% | patients persisting with alterations in respiratory rate, headache, anosmia, and arthralgia (SARS-CoV2 (Covid-19); after 7 days): 20% | patients persisting with dyspnea (SARS-CoV2 (Covid-19); after 7 days): 60% | patients with mild alterations in heart rate, cough and loss of the sense of taste (SARS-CoV2 (Covid-19); day 14, 7 days post-treatment): 20% | the other symptoms (SARS-CoV2 (Covid-19); day 14, 7 days post-treatment): disappeared | dyspnea and headache (SARS-CoV2 (Covid-19); [1]): disappeared in all patients | oxygen requirement to maintain saturation >90% (SARS-CoV2 (Covid-19); [1]): none required oxygen | acute respiratory failure syndrome or hospitalization (SARS-CoV2 (Covid-19); human, in vivo): None | complications related to SARS-CoV2 infection or due to the use of collagen-PVP (SARS-CoV2 (Covid-19); human, in vivo): No complications | death (SARS-CoV2 (Covid-19); human, in vivo): No patient died | adverse effects (SARS-CoV2 (Covid-19); mild to moderate disease): No adverse effects were detected, except for pain at the application site | persistence of pain at the application site (SARS-CoV2 (Covid-19); mild to moderate disease): 5 to 15 min | clinical improvement (SARS-CoV2 (Covid-19); patients with Covid-19, intramuscular, all cases): In all cases there was a clinical improvement
